Assay results reported in patent publication US11666558B2, “Methods of treating intraocular pressure with activators of Tie-2” (EyePoint Pharmaceuticals, Inc., priority 2015, dated 2023).
Like-named read-outs stand apart in the source and are kept apart here.

Assay: Ocular tissue concentrations (aqueous humor, vitreous humor, iris, retina, choroid, cornea) after topical ocular, subcutaneous and intravitreal administration
Format: in vivo, New Zealand White rabbits
Details: New Zealand White, rabbit; for concentration at 2 h / concentration at 4 h / concentration at 0.5 h / concentration at 1 h: subcutaneous, 5 mg/kg/dose, subcutaneous 5 mg/kg/dose; for concentration at 6 hr / concentration at 24 hr / concentration at 48 hr / concentration at 72 hr: other: intravitreal, 2.5 mg/eye
Procedure: To measure the concentration of Compound 1 in plasma and ocular tissues following topical ocular, subcutaneous, and intravitreal administration, New Zealand White rabbits were administered Compound 1, and plasma and ocular samples were collected at pre-determined time points. Compound 1 formulations were prepared fresh on each day of dosing.
Ocular tissue samples from both eyes of each animal were collected and weights were recorded. Plasma and ocular tissue sample concentrations of Compound 1 were determined by LC-MS/MS.
New Zealand White rabbits weighing 2.5 to 3.5 kg were used on this study. Rabbits were housed one per cage. Animals were not fasted and only healthy animals with no ocular illness were used. Two rabbits per group were sacrificed at each of four ocular tissue sampling time points for a total of eight rabbits per group.
Animals were anesthetized for ocular (topical) and intravitreal dosing following the 12IA7 IACUC protocol. Each rabbit received a bolus dose of test formulation either via topical ocular administration 3 times daily on Days 1 and 2 (at 0, 6, and 12 hours), and once on Day 3 (at 0 hours) into both eyes; via intravitreal administration into both eyes once on Day 1 (at 0 hours); or via subcutaneous administration 2 times daily on Days 1 and 2 (at 0 and 8 hours) and once daily on Day 3 (at 0 hours). Doses were given within an approximately 1 hour window each day where applicable.
On Day 1, for intravitreal administration, or on Day 3, for topical ocular and subcutaneous administration, at the appropriate ocular tissue collection time points, animals were euthanized and both eyes were enucleated immediately. Following enucleation, each eye was rinsed with phosphate-buffered saline. Ocular tissue samples from both eyes of each animal were collected at predetermined time points and weights were recorded. All the samples were frozen immediately on dry ice, and stored at −60° C. to −80° C. pending bioanalysis.
An LC-MS/MS method was developed for the determination of Compound 1 in rabbit aqueous tissues (plasma, aqueous and vitreous humor) and solid ocular tissue samples. A pre-study standard curve was analyzed to determine the specificity, range, and lower limit of quantitation of the method. Plasma and tissue homogenate study samples were extracted and analyzed. All the samples were treated identically to the standards.
One eight-point standard curve was used in each analytical batch. To be accepted, each batch must have had at least five of eight standards with accuracy within ±20% of nominal, except at the lower limit of quantification (LLOQ), where ±25% was acceptable.
Concentration versus time data is plotted in FIGS. 3-16. All data are expressed as ng/g of the free drug. Samples that were below the limit of quantitation (0.2 ng/mL) were not used in the calculation of averages.

[1] = choroid, TABLE 16: Choroid, free acid, Group 3, read-out: Choroid Average
[2] = cornea homogenate, Cornea homogenate, OD, sodium salt, intravitreal 2.5 mg/eye, Group 4, read-out: Cornea Conc. (ng/mL) OD
[3] = cornea homogenate, Cornea homogenate, OS, sodium salt, intravitreal 2.5 mg/eye, Group 4, read-out: Cornea Conc. (ng/mL) OS
[4] = cornea homogenate, Cornea homogenate, right eye, intravitreal 2.5 mg/eye (group 5), individual animals, read-out: Conc. (ng/mL) OD
[5] = cornea homogenate, Cornea homogenate, left eye, intravitreal 2.5 mg/eye (group 5), individual animals, read-out: Conc. (ng/mL) OS
[6] = cornea homogenate, Cornea homogenate, OD, free acid, Group 3, read-out: Cornea Conc. (ng/mL) OD
[7] = cornea homogenate, Cornea homogenate, OS, free acid, Group 3, read-out: Cornea Conc. (ng/mL) OS
[8] = cornea homogenate, Cornea homogenate, OS, sodium salt, Group 2, read-out: Cornea Conc. (ng/mL) OS
[9] = cornea homogenate, Cornea homogenate, OD, sodium salt, Group 2, read-out: Cornea Conc. (ng/mL) OD
[10] = cornea homogenate, TABLE 16: Cornea homogenate, OD, free acid, Group 3, read-out: Cornea Conc. (ng/mL) OD
[11] = cornea homogenate, TABLE 16: Cornea homogenate, OS, free acid, Group 3, read-out: Cornea Conc. (ng/mL) OS
[12] = cornea, Cornea, OD, sodium salt, intravitreal 2.5 mg/eye, Group 4, read-out: Cornea Conc. (ng/g) OD
[13] = cornea, Cornea, OS, sodium salt, intravitreal 2.5 mg/eye, Group 4, read-out: Cornea Conc. (ng/g) OS
[14] = cornea, Cornea, average, intravitreal 2.5 mg/eye (group 5), read-out: Avg.
[15] = cornea, Cornea, right eye, intravitreal 2.5 mg/eye (group 5), individual animals, read-out: Conc. (ng/g) OD
[16] = cornea, Cornea, sodium salt, intravitreal 2.5 mg/eye, Group 4, read-out: Cornea Avg.
[17] = cornea, Cornea, left eye, intravitreal 2.5 mg/eye (group 5), individual animals, read-out: Conc. (ng/g) OS
[18] = cornea, Cornea, OD, free acid, Group 3, read-out: Cornea Conc. (ng/g) OD
[19] = cornea, Cornea, OS, sodium salt, Group 2, read-out: Cornea Conc. (ng/g) OS
[20] = cornea, Cornea, free acid, Group 3, read-out: Cornea Average
[21] = cornea, Cornea, sodium salt, Group 2, read-out: Cornea Average
[22] = cornea, Cornea, OD, sodium salt, Group 2, read-out: Cornea Conc. (ng/g) OD
[23] = cornea, TABLE 16: Cornea, OD, free acid, Group 3, read-out: Cornea Conc. (ng/g) OD
[24] = cornea, TABLE 16: Cornea, free acid, Group 3, read-out: Cornea Average

Q: With `COC(=O)N[C@@H](Cc1ccccc1)C(=O)N[C@@H](Cc1ccc(NS(=O)(=O)O)cc1)c1csc(-c2cccs2)n1` [Compound 1] as the molecule, how does the concentration at 2 h (choroid, TABLE 16: Choroid, OS, free acid, Group 3, read-out: Choroid Conc. (ng/g) OS) read?
A: 53.2 ng/g

Q: What about the concentration at 2 h [1] of the same molecule?
A: 47.7 ng/g

Q: What about the concentration at 4 h (choroid, TABLE 16: Choroid, OD, free acid, Group 3, read-out: Choroid Conc. (ng/g) OD) of the same molecule?
A: 53 ng/g

Q: And the concentration at 4 h [1]?
A: 61 ng/g

Q: And the concentration at 6 hr [2]?
A: 6300 ng/mL

Q: And the concentration at 6 hr [3]?
A: 6940 ng/mL

Q: And the concentration at 6 hr [4]?
A: 7910 ng/mL

Q: What about the concentration at 24 hr [2] of the same molecule?
A: 2180 ng/mL

Q: What about the concentration at 24 hr [3] of the same molecule?
A: 1560 ng/mL

Q: And the concentration at 24 hr [5]?
A: 1190 ng/mL

Q: And the concentration at 24 hr [4]?
A: 1520 ng/mL

Q: What about the concentration at 48 hr [2] of the same molecule?
A: 1050 ng/mL

Q: And the concentration at 48 hr [3]?
A: 662 ng/mL

Q: And the concentration at 48 hr [5]?
A: 293 ng/mL

Q: And the concentration at 48 hr [4]?
A: 437 ng/mL

Q: And the concentration at 0.5 h [6]?
A: 0.55 ng/mL

Q: And the concentration at 0.5 h [7]?
A: 0.897 ng/mL

Q: What about the concentration at 0.5 h [8] of the same molecule?
A: 2.46 ng/mL

Q: What about the concentration at 1 h [6] of the same molecule?
A: 1.11 ng/mL

Q: And the concentration at 1 h [9]?
A: 2.37 ng/mL

Q: What about the concentration at 1 h [8] of the same molecule?
A: 4.52 ng/mL

Q: And the concentration at 2 h [6]?
A: 0.514 ng/mL

Q: What about the concentration at 2 h [8] of the same molecule?
A: 0.998 ng/mL

Q: And the concentration at 4 h [6]?
A: 0.942 ng/mL

Q: What about the concentration at 4 h [9] of the same molecule?
A: 0.752 ng/mL

Q: What about the concentration at 4 h [7] of the same molecule?
A: 2.51 ng/mL

Q: What about the concentration at 4 h [8] of the same molecule?
A: 0.784 ng/mL

Q: And the concentration at 0.5 h [10]?
A: 0.55 ng/mL

Q: And the concentration at 0.5 h [11]?
A: 0.897 ng/mL

Q: What about the concentration at 1 h [10] of the same molecule?
A: 1.11 ng/mL

Q: And the concentration at 2 h [10]?
A: 0.514 ng/mL

Q: And the concentration at 4 h [10]?
A: 0.942 ng/mL

Q: What about the concentration at 4 h [11] of the same molecule?
A: 2.51 ng/mL

Q: And the concentration at 6 hr [12]?
A: 69300 ng/g

Q: And the concentration at 6 hr [13]?
A: 76300 ng/g

Q: And the concentration at 6 hr [14]?
A: 54600 ng/g

Q: What about the concentration at 6 hr [15] of the same molecule?
A: 87000 ng/g

Q: What about the concentration at 6 hr [16] of the same molecule?
A: 71400 ng/g

Q: And the concentration at 24 hr [12]?
A: 24000 ng/g

Q: And the concentration at 24 hr [13]?
A: 17200 ng/g

Q: And the concentration at 24 hr [14]?
A: 17300 ng/g

Q: And the concentration at 24 hr [17]?
A: 13100 ng/g

Q: And the concentration at 24 hr [15]?
A: 16700 ng/g

Q: And the concentration at 24 hr [16]?
A: 23700 ng/g

Q: And the concentration at 48 hr [12]?
A: 11600 ng/g

Q: What about the concentration at 48 hr [13] of the same molecule?
A: 7280 ng/g

Q: And the concentration at 48 hr [14]?
A: 4630 ng/g

Q: And the concentration at 48 hr [17]?
A: 3220 ng/g

Q: And the concentration at 48 hr [15]?
A: 4810 ng/g

Q: What about the concentration at 48 hr [16] of the same molecule?
A: 7530 ng/g

Q: What about the concentration at 72 hr [14] of the same molecule?
A: 762 ng/g

Q: What about the concentration at 72 hr [16] of the same molecule?
A: 421 ng/g

Q: And the concentration at 0.5 h [18]?
A: 6.05 ng/g

Q: And the concentration at 0.5 h (cornea, Cornea, OS, free acid, Group 3, read-out: Cornea Conc. (ng/g) OS)?
A: 9.87 ng/g

Q: And the concentration at 0.5 h [19]?
A: 27.1 ng/g

Q: What about the concentration at 0.5 h [20] of the same molecule?
A: 7.96 ng/g

Q: And the concentration at 0.5 h [21]?
A: 19.4 ng/g

Q: What about the concentration at 1 h [18] of the same molecule?
A: 12.2 ng/g

Q: What about the concentration at 1 h [22] of the same molecule?
A: 26.1 ng/g

Q: And the concentration at 1 h [19]?
A: 25.3 ng/g

Q: And the concentration at 1 h [20]?
A: 12.2 ng/g

Q: What about the concentration at 1 h [21] of the same molecule?
A: 31.1 ng/g

Q: And the concentration at 2 h [18]?
A: 5.65 ng/g

Q: What about the concentration at 2 h [22] of the same molecule?
A: 11.7 ng/g

Q: And the concentration at 2 h [19]?
A: 11 ng/g

Q: And the concentration at 2 h [20]?
A: 5.65 ng/g

Q: What about the concentration at 2 h [21] of the same molecule?
A: 9.45 ng/g

Q: What about the concentration at 4 h [18] of the same molecule?
A: 10.4 ng/g

Q: And the concentration at 4 h [22]?
A: 8.27 ng/g

Q: What about the concentration at 4 h [19] of the same molecule?
A: 8.62 ng/g

Q: What about the concentration at 4 h [20] of the same molecule?
A: 15.8 ng/g

Q: What about the concentration at 4 h [21] of the same molecule?
A: 10.1 ng/g

Q: What about the concentration at 0.5 h [23] of the same molecule?
A: 6.05 ng/g

Q: And the concentration at 0.5 h (cornea, TABLE 16: Cornea, OS, free acid, Group 3, read-out: Cornea Conc. (ng/g) OS)?
A: 9.87 ng/g

Q: And the concentration at 0.5 h [24]?
A: 7.96 ng/g

Q: And the concentration at 1 h [23]?
A: 12.2 ng/g

Q: And the concentration at 1 h [24]?
A: 12.2 ng/g

Q: What about the concentration at 2 h [23] of the same molecule?
A: 5.65 ng/g

Q: What about the concentration at 2 h [24] of the same molecule?
A: 5.65 ng/g
